Test results reported in US5962487A, “Antipicornaviral compounds and methods for their use and preparation” (Agouron Pharmaceuticals, Inc., priority 1997, dated 1999).

Tests used:
[1] = biological target: T1, Rhinovirus 3C protease (RVP) serotype-14 (Human rhinovirus 14, UniProt P03303); experiment: Inhibition of Rhinovirus Protease, serotype 14 (FRET assay); type: biochemical; conditions: for Ki: 10 minute preincubation with 50 nM RVP prior to addition of substrate, read-out: INHIB (Ki); for kinact/KI: read-out: kobs/I
T1 construct: Recombinant Rhinovirus 3C proteases from serotypes 14, 16, 2 or 89 were prepared; made in house
T1 sequence (P03303 1538-1719): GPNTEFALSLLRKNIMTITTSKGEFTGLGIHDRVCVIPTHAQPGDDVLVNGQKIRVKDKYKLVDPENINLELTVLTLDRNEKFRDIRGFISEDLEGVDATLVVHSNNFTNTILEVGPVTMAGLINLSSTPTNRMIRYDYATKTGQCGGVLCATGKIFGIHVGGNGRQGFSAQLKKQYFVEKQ
Experimental: Stock solutions (50 mM, in DMSO) of various compounds were prepared; dilutions were in the same solvent. Recombinant Rhinovirus 3C proteases from serotypes 14, 16, 2 or 89 were prepared by the following standard chromatographic procedures: (1) ion exchange using Q Sepharose Fast Flow from Pharmacia; (2) affinity chromatography using Affi-Gel Blue from Biorad; and (3) sizing using Sephadex G-100 from Pharmacia. Assays contained 2% DMSO, 50 mM tris pH 7.6, 1 mM EDTA, a compound at the indicated concentrations, approximately 1 μM substrate, and 50-100 nM protease. For Ki determinations, the compound and the enzyme were preincubated for 10 minutes at 30° C. prior to addition of the substrate (substrate start). The kobs/I values were obtained from reactions initiated by addition of enzyme rather than substrate. RVP activity is measured in the fluorescence resonance energy transfer assay. The substrate was (N-terminal) DABCYL-(Gly-Arg-Ala-Val-Phe-Gln-Gly-Pro-Val-Gly)-EDANS. In the uncleaved peptide, the EDANS fluorescence was quenched by the proximal DABCYL moiety. When the peptide was cleaved, the quenching was relieved, and activity was measured as an increase in fluorescence signal.
In the above table, all data is for RVP serotype-14 unless otherwise noted in parentheses. All strains of human rhinovirus (HRV) were purchased from American Type Culture Collection (ATCC), except for serotype 14, which was produced from the infectious cDNA clone constructed and supplied to us by Dr. Roland Rueckert at the Institute for Molecular Virology, University of Wisconsin, Madison, Wis. The column designated INHIB represents the percent inhibition, with the concentration of the compound in μM indicated in parentheses, unless Ki was assigned as designated by (Ki), at 10 minute preincubation with 50 nM RVP prior to addition of substrate was used. The data in the column designated kobs/I was measured from progress curves in enzyme start experiments.

in vitro = type: cell-based; conditions: human, hi-hela cells
Experimental: (§1) HI-HeLa cells were infected with HRV-14 (unless otherwise noted) at a multiplicity of infection (m.o.i.) of 0.13 (virus particles/cell) or mock-infected with medium only. Infected or mock-infected cells were resuspended at 8×10^5 cells per mL and incubated with appropriate concentrations of compounds of formulas I and II. Two days later, XTT/PMS was added to test plates, and the amount of formazan produced was quantified spectrophotometrically at 450/650 nm. The EC50 was calculated as the concentration of compound that increased the percentage of formazan production in compound-treated, virus-infected cells to 50% of that produced by compound-free mock-infected cells. The 50% cytotoxic dose (CC50) was calculated as the concentration of compound that decreased the percentage of formazan produced in compound-treated, mock-infected cells to 50% of that produced in compound-free, mock-infected cells. The therapeutic index (TI) was calculated by dividing the CC50 by the EC50.
(§2) All strains of human rhinovims (HRV) for use in this assay were purchased from American Type Culture Collection (ATCC), except for HRV serotype-14, which was produced from the infectious cDNA clone, constructed and supplied to us by Dr. Roland Rueckert at the Institute for Molecular Virology, University of Wisconsin, Madison, Wis. HRV stocks were propagated, and antiviral assays were performed in HI-HeLa (ATCC). Cells were grown in Minimal Essential Medium, available from Life Technologies, with 10% fetal bovine serum.

HRV-14 = experiment: Antirhinoviral HI-HeLa Cell Culture Assay (cell protection, XTT), HRV-14; type: cell-based, human rhinovirus; conditions: for TI: CC50/EC50, HRV serotype-14, 2880 min; for EC50: Rhinovirus B, HRV14, 48 h, HRV serotype-14 infected HI-HeLa cells, XTT, two days
Experimental: In the Cell Protection Assay, the ability of compounds to protect cells against HRV infection was measured by the XTT dye reduction method. This method is described in O. S. Weislow, R. Kiser, D. L. Fine, J. Bader, R. H. Shoemaker, and M. R. Boyd, J. Natl. Cancer Inst. 1989, 81, 577-586, which document is entirely incorporated herein by reference.
as §1, §2
The compounds were tested against control compounds WIN 51711, WIN 52084, and WIN 54954, all obtained from Sterling-Winthrop Pharmaceuticals, and control compound Pirodavir, obtained from Janssen Pharmaceuticals. Antiviral data obtained for the test compounds are shown in Table 2 where all data are for HRV serotype-14 unless otherwise noted in parentheses.

SMILES: CCOC(=O)/C=C/[C@H](CCC(N)=O)NC(=O)[C@@H]1[C@@H](C)CCN1C(=O)[C@H](CC(C)C)NC(=O)OCc1ccccc1 [Compound 21, Ethyl-3-[CBZ-L-Leu-L-(3S-Methyl)-Pro-L-Gln]-E-Propenoate]
- Ki ([1]; RVP serotype-14): 50 µM
- kinact/KI [1]: 256 M⁻¹ s⁻¹
- CC50 at 48 h (in vitro): > 320 µM
- TI (HRV-14): > 15
- EC50 (HRV-14): 22 µM

SMILES: CON(C)C(=O)/C=C/[C@H](CCC(N)=O)NC(=O)[C@@H]1[C@@H](c2ccccc2)CCN1C(=O)[C@H](CC(C)C)NC(=O)OCc1ccccc1 [Compound 22, N-Methoxy, N-Methyl-3-[CBZ-L-Leu L-(3R-Phenyl)-Pro-L-Gln]-E-Propenamide]
- kinact/KI [1]: 100 M⁻¹ s⁻¹
- CC50 at 48 h (in vitro): > 320 µM
- TI (HRV-14): > 2
- EC50 (HRV-14): 178 µM

SMILES: CCOC(=O)C=CC(CCC(N)=O)NC(=O)C1CC(OC(C)(C)C)CN1C(=O)C(CC(C)C)NC(=O)OCc1ccccc1 (stereo not drawn) [Compound 23]
- Ki ([1]; RVP serotype-14): 60 µM
- kinact/KI [1]: 605 M⁻¹ s⁻¹
- CC50 at 48 h (in vitro): 224 µM
- TI (HRV-14): 22
- EC50 (HRV-14): 10 µM

SMILES: CC(C)C[C@H](NC(=O)OCc1ccccc1)C(=O)N1CCCC[C@H]1C(=O)N[C@H](/C=C/C(=O)N1CCCCO1)CCC(N)=O [Compound 26, 1-[1',2'-Oxazin-2'-yl]-3-(CBZ-L-Leu-L-Pip-L-Gln)-E-Propenone]
- Ki ([1]; RVP serotype-14): 34 µM
- kinact/KI [1]: 875 M⁻¹ s⁻¹
- CC50 at 48 h (in vitro): > 320 µM
- TI (HRV-14): > 5
- EC50 (HRV-14): 56 µM

SMILES: CCOC(=O)/C=C/[C@H](CCC(N)=O)NC(=O)Cn1c(-c2ccccc2)ncc(NC(=O)OCc2ccccc2)c1=O [Compound 30, Ethyl-3-([(5-CBZ-Amino)-2-Phenyl-6-Oxo-1,6-Dihydro-1-Pyrimidinyl]-L-Gln)-E-Propenoate]
- Ki ([1]; RVP serotype-14): 55 µM
- kinact/KI [1]: 163 M⁻¹ s⁻¹
- CC50 at 48 h (in vitro): 177 µM
- TI (HRV-14): 25
- EC50 (HRV-14): 7.2 µM

SMILES: CCOC(=O)/C=C/[C@H](CCC(N)=O)NC(=O)Cn1c(-c2ccccc2)ncc(N)c1=O [Compound 31, Ethyl-3-{[(5-Amino)-2-Phenyl-6Oxo-1,6-Dihydro-1-Pyrimidinyl]-L-Gln}-Propenoate]
- kinact/KI [1]: 39 M⁻¹ s⁻¹
- CC50 at 48 h (in vitro): > 320 µM
- TI (HRV-14): > 6
- EC50 (HRV-14): 56 µM

SMILES: CCOC(=O)/C=C/[C@H](CCC(N)=O)NC(=O)[C@H](Cc1ccccc1)n1cc[nH]c1=O [Compound 32, Ethyl-3-(L-N-[(1,3-Dihydro-imidazol-2-one)-Phe]-L-Gln)-E-Propenoate]
- kinact/KI [1]: 98 M⁻¹ s⁻¹
- CC50 at 48 h (in vitro): > 320 µM
- TI (HRV-14): > 2
- EC50 (HRV-14): 158 µM

SMILES: CCOC(=O)/C=C/[C@H](CCC(N)=O)NC(=O)[C@H](Cc1ccccc1)n1ccn(NC(=O)OCc2ccccc2)c1=O [Compound 33, Ethyl-3-(CBZ-amino-L-N-[(1,3-Dihydro-imidazol-2-one)-Phe]-L-Gln)-E-Propenoate]
- inhibition at 10 µM ([1]; RVP serotype-14, 10 μM compound, 10 minute preincubation with 50 nM RVP, read-out: INHIB (percent inhibition)): 86%
- kinact/KI [1]: 361 M⁻¹ s⁻¹
- CC50 at 48 h (in vitro): > 320 µM
- EC50 (HRV-14): > 320 µM

SMILES: CCOC(=O)/C=C/[C@H](CCC(N)=O)NC(=O)[C@H](Cc1ccccc1)N(C)C(=O)[C@H](CC(C)C)NC(=O)SC(C)C [Compound 38]
- kinact/KI [1]: 18200 M⁻¹ s⁻¹
- CC50 at 48 h (in vitro): > 100 µM
- TI (HRV-14): > 278
- EC50 (HRV-14): 0.36 µM

SMILES: CCOC(=O)/C(C)=C/[C@H](CCC(N)=O)NC(=O)[C@H](Cc1ccccc1)N(C)C(=O)[C@H](CC(C)C)NC(=O)SC(C)C [Compound 39]
- kinact/KI [1]: 2330 M⁻¹ s⁻¹
- CC50 at 48 h (in vitro): 180 µM
- TI (HRV-14): 113
- EC50 (HRV-14): 1.6 µM

SMILES: CCOC(=O)/C=C/[C@H](CCC(N)=O)NC(=O)[C@H](Cc1ccccc1)N(C)C(=O)[C@H](CC(C)C)NC(=O)SCC1CCCCC1 [Compound 40]
- kinact/KI [1]: 12100 M⁻¹ s⁻¹
- CC50 at 48 h (in vitro): 45 µM
- TI (HRV-14): 141
- EC50 (HRV-14): 0.32 µM

SMILES: CCOC(=O)/C(C)=C/[C@H](CCC(N)=O)NC(=O)[C@H](Cc1ccccc1)N(C)C(=O)[C@H](CC(C)C)NC(=O)SCC1CCCCC1 [Compound 41]
- kinact/KI [1]: 2350 M⁻¹ s⁻¹
- CC50 at 48 h (in vitro): 18 µM
- TI (HRV-14): 9
- EC50 (HRV-14): 2 µM

SMILES: CCOC(=O)/C=C/[C@H](CCC(N)=O)NC(=O)[C@H](Cc1ccccc1)N(C)C(=O)[C@H](CC(C)C)NC(=O)SC1CCCCC1 [Compound 42]
- kinact/KI [1]: 15000 M⁻¹ s⁻¹
- CC50 at 48 h (in vitro): 50.1 µM
- TI (HRV-14): 111
- EC50 (HRV-14): 0.45 µM

SMILES: CCOC(=O)/C(C)=C/[C@H](CCC(N)=O)NC(=O)[C@H](Cc1ccccc1)N(C)C(=O)[C@H](CC(C)C)NC(=O)SC1CCCCC1 [Compound 43]
- kinact/KI [1]: 2200 M⁻¹ s⁻¹
- CC50 at 48 h (in vitro): 56.2 µM
- TI (HRV-14): 16
- EC50 (HRV-14): 3.5 µM

SMILES: CCOC(=O)/C=C/[C@H](CCC(N)=O)NC(=O)[C@H](Cc1ccccc1)N(C)C(=O)[C@H](CC(C)C)NC(=O)SCC(C)C [Compound 44]
- kinact/KI [1]: 12300 M⁻¹ s⁻¹
- CC50 at 48 h (in vitro): 56.2 µM
- TI (HRV-14): 104
- EC50 (HRV-14): 0.54 µM

SMILES: CCOC(=O)/C(C)=C/[C@H](CCC(N)=O)NC(=O)[C@H](Cc1ccccc1)N(C)C(=O)[C@H](CC(C)C)NC(=O)SCC(C)C [Compound 45]
- kinact/KI [1]: 2300 M⁻¹ s⁻¹
- CC50 at 48 h (in vitro): 56.2 µM
- TI (HRV-14): 32
- EC50 (HRV-14): 1.78 µM

SMILES: CCOC(=O)/C=C/[C@H](CCC(N)=O)NC(=O)[C@H](Cc1ccccc1)N(C)C(=O)[C@H](CSc1ccccc1)NC(=O)SC1CCCC1 [Compound 46]
- kinact/KI [1]: 36800 M⁻¹ s⁻¹
- CC50 at 48 h (in vitro): 18 µM
- TI (HRV-14): 33
- EC50 (HRV-14): 0.54 µM

SMILES: CCOC(=O)/C(C)=C/[C@H](CCC(N)=O)NC(=O)[C@H](Cc1ccccc1)N(C)C(=O)[C@H](CSc1ccccc1)NC(=O)SC1CCCC1 [Compound 47]
- kinact/KI [1]: 6500 M⁻¹ s⁻¹
- CC50 at 48 h (in vitro): 18 µM
- TI (HRV-14): 14
- EC50 (HRV-14): 1.3 µM

SMILES: CCOC(=O)/C=C/[C@H](CCC(N)=O)NC(=O)[C@H](Cc1ccc(C)cc1)N(C)C(=O)[C@@H](NC(=O)SC1CCCC1)C(C)(C)C [Compound 48]
- kinact/KI [1]: 14000 M⁻¹ s⁻¹
- CC50 at 48 h (in vitro): > 10 µM
- TI (HRV-14): > 20
- EC50 (HRV-14): 0.5 µM

SMILES: CCOC(=O)/C(C)=C/[C@H](CCC(N)=O)NC(=O)[C@H](Cc1ccc(C)cc1)N(C)C(=O)[C@@H](NC(=O)SC1CCCC1)C(C)(C)C [Compound 49]
- kinact/KI [1]: 1910 M⁻¹ s⁻¹
- CC50 at 48 h (in vitro): 71 µM
- TI (HRV-14): 710
- EC50 (HRV-14): 0.1 µM
